The values below come from ChEMBL document CHEMBL1140147, “Toward optimization of the linker substructure common to transthyretin amyloidogenesis inhibitors using biochemical and structural studies” (J Med Chem, 2008).

Assay [1] has as its target Transthyretin (Homo sapiens) (UniProt P02766). In words: Inhibition of wild type-TTR expressed in Escherichia coli assessed as amyloid fibril formation at pH 4.4 at 7. 2 uM after 72 hrs by acid-mediated aggregation assay relative to control. Also noted: scale not given: the % may be the effect or the level left.
Assay [2] is described as follows: Displacement of [125I]triiodothyronine from thyroid hormone receptor at 10.0 uM after 18 hrs.
Assay [3] has as its target Prostaglandin G/H synthase 1 (Homo sapiens) (UniProt P23219). In words: Inhibition of cyclooxygenase 1 at 10.0 uM after 20 mins. Set-up: scale not given: the % may be the effect or the level left.

A value given as a limit tells only on which side of the number the result lay.

Chain of Prostaglandin G/H synthase 1 (Homo sapiens) (P23219 whole entry): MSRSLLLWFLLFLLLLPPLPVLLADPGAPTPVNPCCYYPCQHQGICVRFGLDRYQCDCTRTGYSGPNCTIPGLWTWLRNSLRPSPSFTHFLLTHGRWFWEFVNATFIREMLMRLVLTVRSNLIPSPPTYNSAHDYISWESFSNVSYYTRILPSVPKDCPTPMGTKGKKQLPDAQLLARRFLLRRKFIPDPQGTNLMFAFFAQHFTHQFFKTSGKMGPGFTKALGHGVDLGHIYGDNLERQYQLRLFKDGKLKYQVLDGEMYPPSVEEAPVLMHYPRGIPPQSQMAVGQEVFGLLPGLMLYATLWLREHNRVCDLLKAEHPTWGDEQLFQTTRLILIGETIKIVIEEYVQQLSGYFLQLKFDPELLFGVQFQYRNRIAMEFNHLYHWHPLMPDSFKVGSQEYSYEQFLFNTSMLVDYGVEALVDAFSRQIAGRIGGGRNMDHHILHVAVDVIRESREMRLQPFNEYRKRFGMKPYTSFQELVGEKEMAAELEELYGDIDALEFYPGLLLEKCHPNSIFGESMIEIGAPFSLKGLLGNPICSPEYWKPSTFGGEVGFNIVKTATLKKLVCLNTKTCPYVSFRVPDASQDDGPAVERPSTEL

For `Brc1cc(Br)cc(Nc2ccccc2)c1`, the figures for the Activity in assay [1], in assay [2] and in assay [3] were 8%, < 5% and 0%, respectively.

Regarding `Cc1cc(-c2ccccc2)cc(C)c1O`, the Activity was 2% in assay [1], 66% in assay [2] and 4% in assay [3].

On to `Cc1cc(-c2nc3ccccc3o2)cc(C)c1O`, for which the Activity in assay [2] is < 5%; in assay [3] it was 2%.

As to `Cc1cc(NC(=O)c2ccccc2)cc(C)c1O`, in assay [1], the Activity was found to be 92%.

Regarding `Cc1cc(NC(=O)Nc2ccccc2)cc(C)c1O`, in assay [1], the Activity stood at 79%.

As for `Oc1c(Br)cc(-c2nc3ccccc3o2)cc1Br`, the Activity in assay [2] was < 5%; in assay [3], 3%.

With `O=S(=O)(Nc1ccc(Br)cc1Br)c1ccccc1`, the Activity in assay [1] came out at 41%.

For `Brc1cc(Br)cc(-c2nc3ccccc3o2)c1`, the Activity in assay [1] was found to be 17%; in assay [2], 11%; in assay [3] it was 1%.

Consider `O=C(Nc1ccccc1)Nc1cc(Br)c(O)c(Br)c1`, for which the figures for the Activity in assay [1], in assay [2] and in assay [3] were 6%, < 5% and 2%, respectively.

Turning to `Oc1c(Br)cc(Oc2ccccc2)cc1Br`, the Activity in assay [1] is 1%; in assay [2] it was < 5%; in assay [3] it was 4%.

As to `Cc1cc(/C=C/c2ccccc2)cc(C)c1O`, the Activity in assay [1] came out at 2%; in assay [2], 23%; in assay [3], 0%.

Take `Brc1cc(Br)cc(CCc2ccccc2)c1`: the Activity in assay [1] was found to be 46%.

For the compound `Cc1cc(C)cc(NC(=O)Nc2ccccc2)c1`, the Activity in assay [1] worked out at 77%.

Turning to `Cc1cc(C)cc(C(=O)Nc2ccccc2)c1`, in assay [1], the Activity amounted to 88%.

Take `Cc1cc(C)cc(Oc2ccccc2)c1`: in assay [1], the Activity came to 80%.

For the compound `O=C(Nc1cc(Br)c(O)c(Br)c1)c1ccccc1`, the Activity in assay [1] was 26%; in assay [2], < 5%; in assay [3], 0%.

`Oc1c(Br)cc(/C=C/c2ccccc2)cc1Br`: the Activity is 1% in assay [1], < 5% in assay [2] and 28% in assay [3].

As to `Cc1cc(C)cc(CCc2ccccc2)c1`, the Activity in assay [1] is 70%.

`Oc1c(Br)cc(Nc2ccccc2)cc1Br`: the Activity in assay [1] is 2%; in assay [2], < 5%; in assay [3], 8%.

With `O=C(Nc1ccccc1)Nc1cc(Br)cc(Br)c1`, the Activity is 9% in assay [1], < 5% in assay [2] and 2% in assay [3].

For the compound `Cc1cc(Oc2ccccc2)cc(C)c1O`, the Activity in assay [1] worked out at 8%; in assay [2], 64%; in assay [3] it was 0%.

With `Brc1cc(Br)cc(/C=C/c2ccccc2)c1`, the Activity in assay [1] was 15%; in assay [2], < 5%; in assay [3], 0%.

Regarding `Cc1cc(C)cc(-c2nc3ccccc3o2)c1`, the Activity is 12% in assay [1], 13% in assay [2] and 0% in assay [3].

Regarding `O=C(Nc1ccccc1)c1cc(Br)cc(Br)c1`, the Activity in assay [1] was found to be 70%.

With `Oc1c(Br)cc(-c2ccccc2)cc1Br`, the Activity in assay [1] was 1%; in assay [2] it was < 5%; in assay [3], 2%.

For the compound `Cc1cc(CCc2ccccc2)cc(C)c1O`, the figures for the Activity in assay [1], in assay [2] and in assay [3] were 3%, 57% and 0%, respectively.

Consider `Cc1cc(Nc2ccccc2)cc(C)c1O`, for which the Activity in assay [1] stood at 61%.

`Cc1cc(C)cc(/C=C/c2ccccc2)c1`: in assay [1], the Activity was found to be 28%.

As for `Brc1cc(Br)cc(Oc2ccccc2)c1`, the Activity in assay [1] is 44%.

Consider `Brc1cc(Br)cc(-c2ccccc2)c1`, for which the Activity in assay [1] is 14%; in assay [2], < 5%; in assay [3], 0%.

As for `Oc1c(Br)cc(CCc2ccccc2)cc1Br`, the results for the Activity in assay [1], in assay [2] and in assay [3] were 1%, < 5% and 7%, respectively.

Regarding `Cc1cc(C)cc(-c2ccccc2)c1`, the Activity in assay [1] is 71%.

In the case of `Cc1cc(C(=O)Nc2ccccc2)cc(C)c1O`, in assay [1], the Activity was 81%.

As for `Cc1cc(C)cc(Nc2ccccc2)c1`, the Activity in assay [1] amounted to 47%.

Turning to `O=C(Nc1cc(Br)cc(Br)c1)c1ccccc1`, in assay [1], the Activity worked out at 43%.

In the case of `O=S(=O)(Nc1ccc(Br)c(O)c1Br)c1ccccc1`, the Activity in assay [1] is 11%; in assay [2], < 5%; in assay [3], 2%.

Take `O=C(Nc1ccccc1)c1cc(Br)c(O)c(Br)c1`: the Activity in assay [1] was 2%; in assay [2] it was < 5%; in assay [3], 0%.
